{"source": "patent US12239648B2", "about": "“KIF5B-RET fusion molecules and uses thereof” (Foundation Medicine, Inc., priority 2011, dated 2025)", "key": {"[1]": {"tested_on": "Thyroid cancers and cell lines harboring PTC-RET translocations", "details": "PTC/RET translocations overexpressing the RET kinase domain; Henderson 2008, Carlomagno 2006; cited from earlier work"}, "KIF5B-RET Ba/F3 cells": {"tested_on": "KIF5B-RET Ba/F3 cells", "assay": "Effects of drugs on Ba/F3 cells transfected with KIF5B-RET fusion constructs (IL-3 independent growth)", "assay_type": "cell-based", "details": "Ba/F3 cells expressing KIF5B-RET, FIG. 8", "text": "FIG. 8 is a graph showing the effects of different drugs on Ba/F3 cells transfected with KIF5B-RET fusion constructs."}}}
{"smiles": "CNC(=O)c1cc(Oc2ccc(NC(=O)Nc3ccc(Cl)c(C(F)(F)F)c3)cc2)ccn1", "note": "[sorafenib]", "values": [{"measurement": "sensitivity of thyroid cancer and cell lines harboring PTC/RET translocations", "setting": "[1]", "result": "sensitive"}, {"measurement": "sensitivity of KIF5B-RET transformed Ba/F3 cells to drug", "setting": "KIF5B-RET Ba/F3 cells", "result": "sensitive"}]}
